# Laboratory results as given in patent US4855290A (priority 1985, dated 1989).
# Values joined by “and” are separate entries in the source; they are usually repeats but may differ in a detail not shown here. Equal entries are not always repeated. “Also recorded” adds a separate entry of the source. Where two headings read alike, the source gives them in different places.
# Tests used:
# [1] = target: central muscarinic receptors (M1) (Rattus norvegicus, UniProt P08482); assay: biochemical; assay type: binding; set-up: IC50^1 :IC50^2: unit not given beside the values
# central muscarinic receptors (M1), sequence (P08482 whole entry): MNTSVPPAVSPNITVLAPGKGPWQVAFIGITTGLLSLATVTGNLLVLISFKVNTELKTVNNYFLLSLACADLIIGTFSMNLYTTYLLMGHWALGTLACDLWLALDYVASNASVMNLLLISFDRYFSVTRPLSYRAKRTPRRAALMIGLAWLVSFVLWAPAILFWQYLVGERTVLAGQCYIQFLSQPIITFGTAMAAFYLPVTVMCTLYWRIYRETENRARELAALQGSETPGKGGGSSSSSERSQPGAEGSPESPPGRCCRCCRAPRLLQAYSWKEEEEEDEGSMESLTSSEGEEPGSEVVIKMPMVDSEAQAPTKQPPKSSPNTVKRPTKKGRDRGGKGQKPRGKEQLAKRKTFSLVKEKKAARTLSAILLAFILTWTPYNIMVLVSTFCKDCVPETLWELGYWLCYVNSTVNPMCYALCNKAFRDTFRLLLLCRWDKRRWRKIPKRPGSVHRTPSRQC
# [2] = Hypothermia-inducing activity in rats; conditions: AF102B at 80 mg./kg. p.o. and 60 mg./kg. i.p., oxotremorine 3.2 mg./kg. p.o. or 1.2 mg./kg. i.p.
# [3] = target: central muscarinic receptors (M1 and M2); assay type: binding, rat
# [4] = tested on: Guinea-pig ileum; assay: Guinea-pig ileum induced contractions; conditions: for Type of activity: guinea-pig ileum; for IC50: inhibiting acetylcholine-induced contractions of the ileum
# From the text: Guinea-pig ileum induced contractions
# *This dose is the IC50 for inhibiting acetylcholineinduced
# contractions of the ileum.
# [5] = LD50 of physostigmine (relative toxicity in rats); conditions: rat, in vivo, ip
# [6] = set-up: species or system Male Sprague-Dawley rats; conditions: rat, in vivo
# [7] = Morris Swimming Maze in AF64A- and CSF-injected rats; assay type: in vivo, male Sprague Dawley rats; conditions: AF102B 1 mg./kg., ip, physostigmine 0.1 mg./kg.
# Description: 38 male Sprague Dawley rats (raised by Charles River) 5-6 months old with an average weight of 500 g. were used. The rats were housed in groups of 5 and were given free access to food and water. Testing was carried out in a round white metal tub 1.4 m. diameter and 0.4 m. deep. The tub was filled with water, made opaque by milk powder to the level of 18 cm. A platform of 12 cm. diameter and at a height of 16 cm. was placed in the tub 2 cm. below water level. The platform was covered with gauze to prevent the animal from slipping back into the water after reaching the platform.
# Prior to testing, the rat was placed on the platform for 120 secs., placed gently into the water, facing the wall of the pool, at one of four starting locations (north, south, east or west) around the pool's perimeter. Within each block of four trials, each rat was started at each of the four starting locations, with the sequence of starting locations randomly selected. Testing was carried out on 2 consecutive days with each rat submitted daily to eight trials. During trials 1-12 the platform was located in the center of the south-east quadrant and during trials 13-16 the platform was transferred to the center of the north-west quadrant. If in a particular trial the rat found the platform, it was permitted to remain on it for 60 secs. before starting the next trial. […] The latency to find the platform was measured.
# For drug testing, rats were injected with AF64A or CSF (3 nmole/2 ul/side) as described in Experiment 2, above. The rats were subjected first to a step-through learning procedure (see Experiment 1, above) and were 3-3.5 months after injection when tested in the water maze. The rats were divided into 4 groups; 18 CSF-injected rats were treated either with physostigmine (0.1 mg./kg. ip) (10 rats) or with saline (8 rats). 20 AF64A-injected rats were divided similarly. The rats were injected with physostigmine immediately before testing on each day.
# Forty male Sprague-Dawley rats (obtained from Charles River Breeding Laboratories U.K.), 5-6 months old, weighing 450-580 g. during the experiment served as subjects. Rats were housed in groups of 5 and were given free access to food and water. 2.5-3.5 months before behavioral testing, rats were injected with AF64A (3 nmole/2 ul/side) (20 rats-group 1) or CSF (20 rats-group 2) as described in the surgery procedure.
# Each of the injected groups was randomly subdivided into two equal size treatment groups.
# [8] = tested on: Guinea-pig ileum; assay: Guinea-pig ileum induced contractions; conditions: ileum contraction
# [9] = in vivo; conditions: mouse, iv
# [10] = in vivo; conditions: mouse, po
# [11] = Signs observed in rats after oral dose of 100 mg./kg.; assay type: in vivo; conditions: 100 mg./kg. oral
# [12] = not given; remark: listed apart in the source
compound,measurement,setting,value
"O=C1CCCN1CC#CCN1CCCC1 [oxotremorine, reference compound]",EC50,[1],0.8 µM
same,IC50,[1],0.8 µM
same,IC50^1 :IC50^2,[1],0.27
same,cholinomimetic manifestation,[2],full cholinomimetic syndrome associated with tonic-clonic convulsions
same,EC50,"[3]; summary table, read-out: EC50, [^3 H]--QNB-binding",3 µM
"CC1(c2ccccc2)OC2(CS1)CN1CCC2CC1 (stereo not drawn) [(Ic), 2-methyl-2-phenylspiro(1,3-oxathiolane-5,3')quinuclidine]",Type of activity,[4],antagonist
same,IC50,[4],2 µM
"c1ccc(C(c2ccccc2)C2OC3(CS2)CN2CCC3CC2)cc1 (stereo not drawn) [(Ib), 2-diphenylmethylspiro(1,3-oxathiolane-5,3')quinuclidine]",Type of activity,[4],antagonist
same,IC50,[4],0.02 µM
"CNC(=O)Oc1ccc2c(c1)[C@]1(C)CCN(C)[C@@H]1N2C [physostigmine, reference compound]",LD50,[5],1 to 2 mg/kg
same,Initial-test latency,[6],25.50 ± 5.68 s and 29.70 ± 7.93 s
same,reversal of AF64A-induced memory impairments in passive avoidance,[6],could be reversed
same,Retention-test latency,[6]; ip,458.90 ± 63.33 s and 576.10 ± 22.69 s
same,Therapeutic index,[6]; ip,5-17 and 10-17
same,retention of passive avoidance (statistics),[6]; ip,"significantly longer, F(1,36)=5.91, p=0.05; also recorded: significantly improved; also recorded: the retention of the CSF-injected group was not affected"
same,effect in Morris Swimming Maze,[7],negative effect; also recorded: inhibited the decrease of the escape-latency curve
same,effect in Morris Swimming Maze,[7]; listed as Physostigmine,worsens; also recorded: apparently impaired the performance of both AF64A and CSF-injected groups
"C[C@@H]1OCC2(CN3CCC2CC3)O1 (stereo in doubt) [AF30, cis-2-methylspiro(1,3-dioxolane-4,3')quinuclidine, reference compound]",effects considered characteristic of parasympatho- or cholinomimetic activity,"mice, oral or iv, tremors, salivation, lachrymation, diarrhoea, miosis",did exhibit such side effects
same,Type of activity,[4],agonist
same,EC50,[8],4 µM
C[C@@H]1O[C@]2(CS1)CN1CCC2CC1 (relative stereo) [AF102A],LD50,[9],40.4 mg/kg
same,Mortality,"mice, 78 mg./kg. per os",0/5
same,Mortality,"mice, 90 mg./kg. per os",2/5
same,Mortality,"mice, 104 mg./kg. per os",2/5
same,Mortality,"mice, 120 mg./kg. per os",4/5
same,Mortality,"mice, 139 mg./kg. per os",5/5
same,Mortality,"mice, 160 mg./kg. per os",5/5
same,time of death after oral administration,"mice, approximate LD50 doses, oral",10 to 15 min
same,absorption by the enteric route,"mice, inferred from i.v./oral LD50 ratio","efficient, rapid and apparently unaltered absorption"
same,effects considered characteristic of parasympatho- or cholinomimetic activity,"mouse, in vivo",none of the test animals exhibited effects considered characteristic of parasympatho- or cholinomimetic activity
same,onset of severe tremors after oral administration,"mouse, in vivo, po",2 to 3 min
same,IC50,[1],30 µM
same,IC50^1 :IC50^2,[1]; PNZ:QNB displacement ratio,0.43
same,LD50,[10],102 mg/kg
same,Signs observed in rats,[11],"spontaneous motor activity was slightly reduced; also recorded: mydriasis, with pupillary size being about three times that seen in controls; also recorded: sudden onset of a brief clonic convulsive seizure which 5 mins. later changed into periodic head twitching and tremors; also recorded: animals appeared somnolent, accompanied by partial loss of righting reflex, dyspnoeic and cyanotic, with very slight salivation and lachrymation; also recorded: full recovery occurred after several hours"
same,mortality in rats,[11],"one animal, out of the group of three, which was found dead"
same,time found dead,[11]; post-administration,40 min
same,muscarinic agonist activity (TABLES 1 and 2),[4]; binding and ileum,almost one order of magnitude less active
same,Type of activity,[4],agonist
same,EC50,[8],> 10 µM
same,IC50,[3]; read-out: IC50^2 for displacement of [^3 H]-QNB,70 µM
same,Mortality,"[12]; mice, 36.0 mg./kg. i.v.",2/6
same,Mortality,"[12]; mice, 37.9 mg./kg. i.v.",3/6
same,Mortality,"[12]; mice, 40.0 mg./kg. i.v.",2/6
same,Mortality,"[12]; mice, 42.5 mg./kg. i.v.",4/6
same,Mortality,"[12]; mice, 45.0 mg./kg. i.v.",6/6
same,time of death after intravenous injection,"[12]; mice, approximate LD50 doses, iv",about 30 secs.
same,onset of severe tremors after intravenous administration,"[12]; mouse, in vivo, iv",10 s
